Assay results: patent US20030175678A1, “Methods for identifying genes regulating desired cell phenotypes” (priority 2001, published 2003)

What was measured:
Format in all cases: cell-based
[1] = tested on: C. barkleyi suspension culture; assay: Differential induction of catechin accumulation in Crassula barkleyi suspension culture; conditions: B49 medium, treated seven days after inoculation, sampled for 17 days
Description: Differential induction of catechin derivatives in the C. barkleyi suspension culture was performed in 250 mL conical flasks containing 100 mL of a secondary metabolite production medium B49 (Gamborg's B5, with 5% sucrose, and no hormones), inoculated with 16 mL of 14 day old suspension culture. The cultures were incubated under low light conditions (approximately 30 lux) at 25° C. for seven days after inoculation. Cultures were then treated using one of each of the following protocols (untreated cultures were also maintained as controls):
(2) Autoclaved aqueous 2,4-D (1 mg/L final concentration) was added;
(4) Filter-sterilized aqueous DL-phenylalanine (200 mg/L) was added;
(6) Filter-sterilized aqueous zeatin (10 μM) was added;
(7) Filter-sterilized aqueous 1-aminocyclopropane-1-carboxylic acid (10 mg/L final concentration) was added;
(8) Filter-sterilized 24-epibrassinolide (1 mg/L final concentration) was added;
(9) Incubation at a temperature of 16° C.; or (10) High light regime (approximately 160 lux).
(§1) Ten milliliter culture samples were taken at regular intervals for 17 days following the day of subculture to B49 medium. All culture samples were centrifuged for five minutes at 4000 rpm, and the cell residue was freeze-dried. Extraction, sample preparation, and HPLC analysis were performed as described in Example 1.

[2] = tested on: C. fascicularis suspension culture; assay: Differential induction of EGCG in Crassula fascicularis suspension culture (HPLC); conditions: B49 medium, treated on day 7 following subculture
Description: Differential induction of catechins in the C. fascicularis suspension culture was performed in 500 mL conical flasks containing 190 mL of either growth medium B105 (modified Gamborg's B5 medium containing 2,4-D (1 mg/L), kinetin (0.1 mg/L), coconut water (100 mL/L), glutamine (10 mM), and 3% sucrose) or a secondary metabolite production medium B49 (Gamborg's B5, 5% sucrose, no hormones), inoculated with 70 mL of 14 day old suspension culture. Cultures were grown for 14 days before harvest and processing. Further cultures grown on production medium B49 were treated using one of each of the following protocols:
(4) A 40 mL aliquot of a day 0 suspension growing on B105 medium was transferred to a 100 mL flask. On day 3, a sterile solution of 5-azacytidine (5-AC) in water was added for a final concentration of 3×10^−5 M, and the resultant mixture was incubated for 11 days. At this point the 40 mL 5-AC-treated culture was subcultured twice before inoculating 190 mL B49 production medium in a 500 mL flask with 70 mL of day 14 suspension. The culture was then treated further according to protocol (2). […]
Lyophilized biomass from 100 mL plant cell culture was extracted three times with 10 mL of boiling aqueous 0.2 M NaH2PO4 solution (total 30 mL). The combined, cooled, extracts were extracted with EtOAc (2×30 mL). The combined EtOAc extracts were then dried under a stream of nitrogen. The samples were dissolved in 50% aqueous acetonitrile at a concentration of 1.0 mg/mL; a 0.1 mL aliquot was transferred into a 0.25 mL glass insert to a 2 mL HPLC vial. The extraction procedure is scalable according to the initial volume of the plant-cell culture used to generate the biomass.
HPLC analyses of compounds in plant cell culture extracts were performed in two systems. System 1 (S1) utilized a Rainin Dynamax SD-200 pumping system, a Varian Dynamax PDA-2 diode array detector, with a Waters XTerra RP 18 (5 μm, 3.0×150 mm) column. The mobile phase was composed from 0.1% acetic acid in H2O (solvent A) and 0.1% acetic acid in acetonitrile (solvent B), at a flow rate of 0.75 mL/min: after maintaining initial conditions (A:B, 95:5) for one minute post-injection, gradient elution was accomplished in a linear fashion over 30 min (to A:B, 40:60). A total of 10 μL of each sample was injected onto the column and eluates were analyzed at a wavelength of 275 nm. System 2 (S2) utilized API-electrospray-LC-MS: a Hewlett Packard series HP1100 with a Waters Xterra RP18 (3.5 μm, 2.1×100 mm) column was used as the inlet for a Micromass Platform-LC, in the positive-ion mode. […] Compounds of interest were detected at 254 nm and as single-charged species via selected-ion monitoring in the mass spectrometer. […]

[3] = tested on: C. dejecta suspension culture; assay: Differential induction of catechin accumulation in Crassula dejecta suspension culture; conditions: cultures grown on B105, added at day 7
Description: Differential induction of catechin derivatives in the C. dejecta suspension culture was performed in 250 mL conical flasks containing 100 mL of B105 growth medium or 100 mL of a secondary metabolite production medium B49 (Gamborg's B5, with 5% sucrose, and no hormones), inoculated with 40 mL of 21 day old suspension culture. The cultures were incubated under low light conditions (approximately 30 lux) at 25° C. Cultures were treated using one of each of the following protocols:
(1) B105 growth medium (no additions) used as is;
(3) Filter-sterilized aqueous zeatin (10 μM) was added at day 7 to a culture grown on B105 medium;
(4) B49 production medium (no additions) used as is;
as §1, with “(6) Filter-sterilized clofibrate (0.5 mM final concentration) was added at day 7 to a culture grown on B49 medium. Ten” for “Ten”, “milliliters of” for “milliliter”, “to B105 or” for “to”

Row | SMILES | catechin biosynthesis and EGCG accumulation [1] | EGCG (mg/gdwt) two days after treatment [2] | induction of catechin, gallocatechin, and EGCG [3]
1 | O=C(O)COc1ccc(Cl)cc1Cl [2,4-D, 2,4-dichlorophenoxyacetic acid] | suppressed catechin biosynthesis | – | –
2 | CC(C)[C@@H](C)[C@@H](O)[C@H](O)[C@@H](C)[C@H]1CC[C@H]2[C@@H]3COC(=O)[C@H]4C[C@H](O)[C@H](O)C[C@]4(C)[C@H]3CC[C@]12C [24-epibrassinolide] | induced catechin biosynthesis and EGCG accumulation | – | –
3 | CCOC(=O)C(C)(C)Oc1ccc(Cl)cc1 [Clofibrate] | – | 89 mg/gdwt | –
4 | O.O.O.O.O.O.O.O=S(=O)([O-])[O-].[Fe+2] [FeSO4.7H2O] | – | 90 mg/gdwt | –
5 | O=C(O)c1cc(O)c(O)c(O)c1 [gallic acid] | – | 82 mg/gdwt | –
6 | C/C(=C\CNc1ncnc2[nH]cnc12)CO [zeatin] | induced catechin biosynthesis and EGCG accumulation | – | induced catechin, gallocatechin, and EGCG
